Assay results: the NIST ThermoML archive (doi:10.1016/j.fluid.2009.08.011)

Experiment: cn = amount concentration of the nth substance listed, in mol/dm3
Conditions: 101 kPa, Liquid, Alternating current cell with electrodes

CCCCCn1cc[n+](C)c1.[Br-] [1-pentyl-3-methylimidazolium bromide] + O
Conditions | molar conductivity [S·m2/mol]
298.15 K, c1 = 0.000384 | 0.0111
298.15 K, c1 = 0.0008844 | 0.0111
298.15 K, c1 = 0.001373 | 0.011
298.15 K, c1 = 0.001897 | 0.011
298.15 K, c1 = 0.002397 | 0.0109
298.15 K, c1 = 0.003002 | 0.0108
298.15 K, c1 = 0.004323 | 0.0107
298.15 K, c1 = 0.005743 | 0.0106
298.15 K, c1 = 0.00718 | 0.0105
298.15 K, c1 = 0.008646 | 0.0104
298.15 K, c1 = 0.01011 | 0.0102
298.15 K, c1 = 0.01145 | 0.0102
298.15 K, c1 = 0.01293 | 0.01
308.15 K, c1 = 0.0006353 | 0.0115
308.15 K, c1 = 0.001306 | 0.0114
308.15 K, c1 = 0.002028 | 0.0113
308.15 K, c1 = 0.002681 | 0.0113
308.15 K, c1 = 0.003351 | 0.0112
308.15 K, c1 = 0.003975 | 0.0111
308.15 K, c1 = 0.004605 | 0.011
308.15 K, c1 = 0.00598 | 0.0109
308.15 K, c1 = 0.007554 | 0.0107
308.15 K, c1 = 0.008895 | 0.0106
308.15 K, c1 = 0.01033 | 0.0105
308.15 K, c1 = 0.01176 | 0.0103
308.15 K, c1 = 0.01422 | 0.0101
318.15 K, c1 = 0.0004898 | 0.0136
318.15 K, c1 = 0.001056 | 0.0135
318.15 K, c1 = 0.002177 | 0.0134
318.15 K, c1 = 0.003249 | 0.0131
318.15 K, c1 = 0.004768 | 0.0128
318.15 K, c1 = 0.006798 | 0.0124
318.15 K, c1 = 0.009143 | 0.012
318.15 K, c1 = 0.01259 | 0.0115
318.15 K, c1 = 0.01687 | 0.0109
318.15 K, c1 = 0.02234 | 0.0103
328.15 K, c1 = 0.0004268 | 0.0146
328.15 K, c1 = 0.0008311 | 0.0141
328.15 K, c1 = 0.001314 | 0.0139
328.15 K, c1 = 0.002252 | 0.0137
328.15 K, c1 = 0.003274 | 0.0135
328.15 K, c1 = 0.004773 | 0.0133
328.15 K, c1 = 0.006329 | 0.0131
328.15 K, c1 = 0.008289 | 0.0128
328.15 K, c1 = 0.01078 | 0.0125
328.15 K, c1 = 0.01389 | 0.0122
328.15 K, c1 = 0.01791 | 0.0118
328.15 K, c1 = 0.02233 | 0.0115
328.15 K, c1 = 0.02611 | 0.0111

CCCCCCn1cc[n+](C)c1.[Br-] [3-hexyl-1-methyl-1H-imidazolium bromide] + O
Conditions | molar conductivity [S·m2/mol]
298.15 K, c1 = 0.0004233 | 0.0104
298.15 K, c1 = 0.0008352 | 0.0103
298.15 K, c1 = 0.001327 | 0.0102
298.15 K, c1 = 0.001785 | 0.0101
298.15 K, c1 = 0.002231 | 0.0101
298.15 K, c1 = 0.003203 | 0.00996
298.15 K, c1 = 0.004124 | 0.00983
298.15 K, c1 = 0.005143 | 0.00974
298.15 K, c1 = 0.006841 | 0.00955
298.15 K, c1 = 0.008495 | 0.00941
298.15 K, c1 = 0.01022 | 0.00923
298.15 K, c1 = 0.01211 | 0.00905
298.15 K, c1 = 0.01464 | 0.0088
308.15 K, c1 = 0.0004492 | 0.0108
308.15 K, c1 = 0.001027 | 0.0106
308.15 K, c1 = 0.001581 | 0.0105
308.15 K, c1 = 0.002065 | 0.0104
308.15 K, c1 = 0.002724 | 0.0104
308.15 K, c1 = 0.003914 | 0.0102
308.15 K, c1 = 0.005116 | 0.00999
308.15 K, c1 = 0.006411 | 0.00987
308.15 K, c1 = 0.008535 | 0.00965
308.15 K, c1 = 0.01052 | 0.00946
308.15 K, c1 = 0.0126 | 0.00927
308.15 K, c1 = 0.01458 | 0.00912
318.15 K, c1 = 0.0004492 | 0.011
318.15 K, c1 = 0.001027 | 0.0109
318.15 K, c1 = 0.001581 | 0.0108
318.15 K, c1 = 0.002065 | 0.0107
318.15 K, c1 = 0.002724 | 0.0106
318.15 K, c1 = 0.003914 | 0.0104
318.15 K, c1 = 0.005116 | 0.0103
318.15 K, c1 = 0.006411 | 0.0102
318.15 K, c1 = 0.008535 | 0.00993
318.15 K, c1 = 0.01052 | 0.00971
318.15 K, c1 = 0.0126 | 0.00953
318.15 K, c1 = 0.01458 | 0.00935
328.15 K, c1 = 0.0005148 | 0.0114
328.15 K, c1 = 0.001041 | 0.0113
328.15 K, c1 = 0.001608 | 0.0111
328.15 K, c1 = 0.002215 | 0.011
328.15 K, c1 = 0.002695 | 0.0109
328.15 K, c1 = 0.003725 | 0.0107
328.15 K, c1 = 0.004772 | 0.0105
328.15 K, c1 = 0.005836 | 0.0103
328.15 K, c1 = 0.007462 | 0.0102
328.15 K, c1 = 0.00911 | 0.00996
328.15 K, c1 = 0.0107 | 0.00985
328.15 K, c1 = 0.01243 | 0.00963
328.15 K, c1 = 0.0147 | 0.00945
